This is an account of results in patent US5093339A, “Pyrano[f]quinoline derivatives and pharmaceutical compositions containing the same” (Kodama Kabushiki Kaisha, priority 1988, dated 1992).

Where two headings read alike, the source gives them in different places.

Data set [1] relates to blood pressure. In words: Blood pressure-reducing action (Test Example 2). The class given is in vivo, dog. The conditions noted are these: dogs, i.v., dissolved in dimethylsulfoxide; for ED20: Canis lupus familiaris, iv, read-out: ED20, dose effective to reduce the blood pressure by 20%. On the procedure:
In order to evaluate the blood pressure-reducing action of the present compounds, each of the compounds was dissolved in dimethylsulfoxide and administered intravenously to dogs. After administration, a dose of the compound effective to reduce the blood pressure by 20% (ED20 :mg/Kg) was measured.

The test system of data set [2] is platelet plasma (platelet-rich plasma of rabbit). In words: Platelet aggregation inhibitory action (Test Example 1), rabbit platelet plasma, aggregation by ADP, PAF, AA or collagen. The class given is cell-based. On the procedure:
For evaluating the platelet aggregation inhibitory action of the present compounds, platelet plasma containing 5×10^5 of platelets in 1 μl of plasma was prepared by appropriately mixing platelet-rich plasma (PRP) of rabbit with platelet-poor plasma (PPP). By using the platelet plasma, the present compounds were measured on 50% inhibitory efficacy (IC 50) against each of platelet aggregation accelerators, 10 μM of adenosine diphosphate (ADP), 0.01 μg/ml of platelet activation factor (PAF), 300 μM of arachidonic acid (AA) and 30 μg/ml of collagen.

Data set [3] has as its system carotid blood-flow. In words: Blood-flow increasing action (Test Example 3), carotid. The data set is classed as in vivo, dog. To be noted: Canis lupus familiaris, iv; dogs, i.v., dissolved in dimethylsulfoxide; read-out: Carotid blood-flow increasing action (ED30), dose required to increase the blood-flow in the carotid by 30%. Here is the method:
In order to evaluate the blood-flow increasing action of the present compounds, each of the compounds was dissolved in dimethylsulfoxide and administered intravenously to dogs. After administration, a dose required to increase the blood-flow in the carotid by 30% was determined.

A short description of data set [4]: Acute toxicity test (Test Example 4). To be noted: in vivo; oral administration to mouse, suspended in carboxymethyl cellulose; read-out: LD50, 50% lethal dose. On the procedure: Each of the present compounds suspended in a carboxymethyl cellulose was administered orally to a mouse and a 50% lethal dose (LD50) was measured. There was not observed any dead mouse even with the administration as high as 2,000 mg/Kg.

Setting [5] is: Oryctolagus cuniculus, 0.01 μg/ml platelet activation factor (PAF), read-out: 50% inhibitory efficacy (IC 50), PAF, Coagulant (ID50).
The mark [6] stands for this setting: Oryctolagus cuniculus, 10 μM adenosine diphosphate (ADP), read-out: 50% inhibitory efficacy (IC 50), ADP, Coagulant (ID50).
The mark [7] stands for this setting: Oryctolagus cuniculus, 30 μg/ml collagen, read-out: 50% inhibitory efficacy (IC 50), Collagen, Coagulant (ID50).
[8] abbreviates: Oryctolagus cuniculus, 300 μM arachidonic acid (AA), read-out: 50% inhibitory efficacy (IC 50), AA, Coagulant (ID50).

With “3,3-dimethyl-1-hydroxy-3H-pyrano [3,2-f]quinoline-8(7H)-one [Preparation Example 9]”, the “ED20, dose effective to reduce the blood pressure by 20%” value in data set [1] is 1.5 mg/kg. For the same compound, the IC50 was determined as 45 µM in data set [2] (0.01 μg/ml platelet activation factor (PAF), read-out: 50% inhibitory efficacy (IC 50), PAF, Coagulant (ID50)); 30 µM in data set [2] (10 μM adenosine diphosphate (ADP), read-out: 50% inhibitory efficacy (IC 50), ADP, Coagulant (ID50)); 30 µM in data set [2] (30 μg/ml collagen, read-out: 50% inhibitory efficacy (IC 50), Collagen, Coagulant (ID50)); 21 µM in data set [2] (300 μM arachidonic acid (AA), read-out: 50% inhibitory efficacy (IC 50), AA, Coagulant (ID50)).

With `CC1CCc2c(ccc3[nH]c(=O)ccc23)O1` (stereo not shown) [Preparation Example 1, 3-methyl-1,2-dihydro-3H-pyrano[3,2-f]quinoline-8(7H)-one], the ED20 in data set [1] is 1.2 mg/kg. Moreover, the IC50 in data set [2] (setting [5]) turned out to be 8 µM; in data set [2] (setting [6]), 5 µM; in data set [2] (setting [7]), 5 µM; in data set [2] (setting [8]), 3 µM.

In the case of `CC1(C)CCc2c(ccc3[nH]c(=O)ccc23)O1` [Preparation Example 2, 3,3-dimethyl-1,2-dihydro-3H-pyrano[3,2-f]quinoline-8(7H)-one], the ED30 in data set [3] turned out to be 0.009 mg/kg. Besides, the ED20 in data set [1] stood at 1.2 mg/kg. Besides, the IC50 in data set [2] (setting [5]) worked out at 6 µM; in data set [2] (setting [6]) it was 5 µM; in data set [2] (setting [7]) it was 7 µM; in data set [2] (setting [8]) it was 5 µM.

Consider `CC1(C)CCc2c(ccc3c2CCC(=O)N3)O1` [Preparation Example 3, 3,3-dimethyl-1,2,9,10-tetrahydro-3H-pyrano [3,2-f]quinoline-8(7H)-one], for which the ED30 in data set [3] stood at 0.03 mg/kg. In data set [1], the ED20 was 0.4 mg/kg. Also, the IC50 stood at 22 µM in data set [2] (setting [5]), 20 µM in data set [2] (setting [6]), 21 µM in data set [2] (setting [7]) and 16 µM in data set [2] (setting [8]).

Take `O=c1ccc2c3c(ccc2[nH]1)OCC=C3` [Preparation Example 4, 3,3-dihydro-3H-pyrano[3,2-f]quinoline-8(7H)-one]: the ED30 in data set [3] turned out to be 0.066 mg/kg. Also, in data set [1], the ED20 is 0.5 mg/kg. Also, the IC50 was 25 µM in data set [2] (setting [5]), 30 µM in data set [2] (setting [6]), 20 µM in data set [2] (setting [7]) and 18 µM in data set [2] (setting [8]).

For orientation: LD50 means the dose expected to kill half of the subjects tested. With `O=c1ccc2c3c(ccc2[nH]1)OCCC3` [Preparation Example 5, 1,2,3,3-tetrahydro-3H-pyrano-[3,2-f]quinoline-8(7H)-one], the LD50 in data set [4] was at least 2000 mg/kg. Further, the ED30 in data set [3] stood at 0.0094 mg/kg. In addition, the ED20 in data set [1] turned out to be 1.6 mg/kg. In addition, the IC50 in data set [2] (setting [5]) turned out to be 8 µM; in data set [2] (setting [6]), 3 µM; in data set [2] (setting [7]) it was 6 µM; in data set [2] (setting [8]), 4 µM.

On to `O=c1ccc2c3c(ccc2[nH]1)OCC(O)C3` (stereo not shown) [Preparation Example 6, 2-hydroxy-1,2,3,3-tetrahydro-3H-pyrano [3,2-f]quinoline-8(7H)-one], for which the LD50 in data set [4] is at least 2000 mg/kg. Moreover, in data set [3], the ED30 came out at 0.19 mg/kg. Besides, the ED20 in data set [1] was 1.5 mg/kg. For the same compound, the IC50 in data set [2] (setting [5]) was found to be 47 µM; in data set [2] (setting [6]) it was 30 µM; in data set [2] (setting [7]) it was 25 µM; in data set [2] (setting [8]), 21 µM.

Turning to `CC1(C)Oc2ccc3[nH]c(=O)ccc3c2CC1O` (stereo not shown) [Preparation Example 7, 3,3-dimethyl-1,2-hydroxy-1,2-dihydro-3 H-pyrano[3,2-f]quinoline-8(7H)-one], the ED20 in data set [1] amounted to 1.6 mg/kg. Also, the IC50 turned out to be 21 µM in data set [2] (setting [5]), 20 µM in data set [2] (setting [6]), 13 µM in data set [2] (setting [7]) and 13 µM in data set [2] (setting [8]).

Turning to `O=c1ccc2c3c(ccc2[nH]1)OCCC3O` (stereo not shown) [Preparation Example 8, 1-hydroxy-1,2,3,3-tetrahydro-3H-pyrano[3,2-f]quinoline-8(7H)-one], the ED20 in data set [1] is 1.8 mg/kg. Moreover, the IC50 amounted to 25 µM in data set [2] (setting [5]), 20 µM in data set [2] (setting [6]), 18 µM in data set [2] (setting [7]) and 18 µM in data set [2] (setting [8]).
